In ChEMBL document CHEMBL3785047, “Biological evaluation of synthetic α,β-unsaturated carbonyl based cyclohexanone derivatives as neuroprotective novel inhibitors of acetylcholinesterase, butyrylcholinesterase and amyloid-β aggregation” (Bioorg Med Chem, 2016):
pIC50: −log10 of the molar value.

Experiments:
[1] = tested on: PC-12; assay: Neuroprotective activity against amyloid beta (1 to 42)-induced cell death in rat PC12 cells assessed as cell viability at 100 uM preincubated for 24 hrs followed by amyloid beta (1 to 42) addition measured after 1 day by MTT assay relative to control; type: functional; details: read-out: Activity
[2] = target: Amyloid-beta precursor protein (Homo sapiens) (UniProt P05067); assay: Inhibition of amyloid beta (1-42) (unknown origin) self-induced aggregation after 2 days by thioflavin T fluorometric assay
[3] = Cytotoxicity against rat PC12 cells assessed as reduction in cell viability at 0.01 to 100 uM after 24 hrs by MTT assay; type: cell-based; details: pc-12, 24 h
[4] = target: Cholinesterase (Equus caballus, UniProt P81908)
Description: Inhibition of horse serum BChE using butrylthiocholine iodide as substrate preincubated for 5 mins followed by substrate addition measured for 10 mins by modified Ellman's method

[5] = target: Acetylcholinesterase (Electrophorus electricus, UniProt O42275)
Acetylcholinesterase, sequence (O42275 whole entry): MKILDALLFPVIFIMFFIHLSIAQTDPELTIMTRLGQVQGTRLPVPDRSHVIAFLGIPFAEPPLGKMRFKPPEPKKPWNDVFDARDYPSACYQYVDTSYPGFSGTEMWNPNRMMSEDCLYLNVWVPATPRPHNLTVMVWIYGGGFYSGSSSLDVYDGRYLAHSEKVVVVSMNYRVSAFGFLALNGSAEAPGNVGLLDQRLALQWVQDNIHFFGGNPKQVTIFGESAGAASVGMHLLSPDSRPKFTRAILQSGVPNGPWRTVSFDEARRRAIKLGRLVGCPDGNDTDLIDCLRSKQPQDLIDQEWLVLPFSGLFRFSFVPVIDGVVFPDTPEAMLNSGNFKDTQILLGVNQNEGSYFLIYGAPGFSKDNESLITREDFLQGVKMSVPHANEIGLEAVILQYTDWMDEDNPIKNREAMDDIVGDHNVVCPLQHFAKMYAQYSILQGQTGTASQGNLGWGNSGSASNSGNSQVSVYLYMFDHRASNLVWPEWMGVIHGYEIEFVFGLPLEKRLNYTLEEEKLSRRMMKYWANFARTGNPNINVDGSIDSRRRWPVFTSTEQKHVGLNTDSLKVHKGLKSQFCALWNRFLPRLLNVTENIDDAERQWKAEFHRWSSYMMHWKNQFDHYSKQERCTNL
Description: Inhibition of electric eel AChE using acetylthiocholine iodide as substrate preincubated for 5 mins followed by substrate addition measured for 10 mins by modified Ellman's method

Cholinesterase, sequence (P81908 whole entry): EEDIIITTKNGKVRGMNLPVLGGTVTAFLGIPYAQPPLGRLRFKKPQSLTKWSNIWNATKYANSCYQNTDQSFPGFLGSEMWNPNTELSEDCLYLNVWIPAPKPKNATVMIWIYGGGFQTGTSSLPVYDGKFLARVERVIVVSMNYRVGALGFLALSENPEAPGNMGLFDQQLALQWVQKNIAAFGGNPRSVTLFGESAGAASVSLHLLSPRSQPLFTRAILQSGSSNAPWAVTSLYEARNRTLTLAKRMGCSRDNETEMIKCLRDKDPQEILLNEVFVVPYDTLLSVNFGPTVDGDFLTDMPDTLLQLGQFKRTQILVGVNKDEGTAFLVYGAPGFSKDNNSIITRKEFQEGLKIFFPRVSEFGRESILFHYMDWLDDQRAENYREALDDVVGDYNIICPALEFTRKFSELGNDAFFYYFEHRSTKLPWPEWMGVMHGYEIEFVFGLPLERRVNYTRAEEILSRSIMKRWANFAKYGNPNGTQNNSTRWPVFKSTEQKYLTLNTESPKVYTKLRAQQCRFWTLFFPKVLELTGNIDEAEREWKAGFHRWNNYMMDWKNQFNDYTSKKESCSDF
Amyloid-beta precursor protein (Homo sapiens), sequence (P05067 whole entry): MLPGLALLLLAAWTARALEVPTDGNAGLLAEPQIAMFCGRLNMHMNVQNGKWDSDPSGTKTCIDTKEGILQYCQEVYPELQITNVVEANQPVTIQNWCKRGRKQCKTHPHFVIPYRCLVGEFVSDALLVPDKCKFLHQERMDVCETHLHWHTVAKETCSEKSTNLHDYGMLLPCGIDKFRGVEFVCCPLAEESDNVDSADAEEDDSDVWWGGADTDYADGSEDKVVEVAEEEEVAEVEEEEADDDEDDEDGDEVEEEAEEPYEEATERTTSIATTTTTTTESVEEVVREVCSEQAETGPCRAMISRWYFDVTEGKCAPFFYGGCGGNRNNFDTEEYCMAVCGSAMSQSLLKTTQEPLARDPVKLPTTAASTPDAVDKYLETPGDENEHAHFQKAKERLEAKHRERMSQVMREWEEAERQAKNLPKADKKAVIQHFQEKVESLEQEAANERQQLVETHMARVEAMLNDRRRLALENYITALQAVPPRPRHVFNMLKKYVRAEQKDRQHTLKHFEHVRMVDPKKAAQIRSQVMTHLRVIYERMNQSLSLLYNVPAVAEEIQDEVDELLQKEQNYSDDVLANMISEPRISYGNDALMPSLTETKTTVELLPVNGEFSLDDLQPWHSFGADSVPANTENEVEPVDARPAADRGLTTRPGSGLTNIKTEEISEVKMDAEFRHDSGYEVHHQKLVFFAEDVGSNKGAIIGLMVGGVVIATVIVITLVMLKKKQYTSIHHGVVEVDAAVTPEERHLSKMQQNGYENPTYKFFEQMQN

SMILES | viability at 100 µM [1] [%] | inhibition [2] | Activity [3] | pIC50 [4] | pIC50 [5]
COc1cc(/C=C2\CC(C(C)C)C/C(=C\c3cc(OC)c(OC)c(OC)c3Br)C2=O)c(Br)c(OC)c1OC (centres undefined) | 58 | Dose-dependent effect | Non-toxic | < 4.00 | 6.29
COc1cccc(/C=C2\CN(Cc3ccccc3)C/C(=C\c3cccc(OC)c3Cl)C2=O)c1Cl | 58 |  | Non-toxic | < 4.00 | < 4.00
COc1ccc(/C=C2\CNC/C(=C\c3ccc(OC)c(OC)c3Cl)C2=O)c(Cl)c1OC | 58 |  | Non-toxic | 4.78 | 5.43
COc1cc(/C=C2\CN(C)C/C(=C\c3cc(OC)c(OC)c(OC)c3Br)C2=O)c(Br)c(OC)c1OC | ≤ 92 | Dose-dependent effect | Non-toxic | 4.98 | 7.43
COc1ccc(/C=C2\COC/C(=C\c3ccc(OC)c(OC)c3Cl)C2=O)c(Cl)c1OC | 58 |  | Non-toxic | < 4.00 | 5.14
COc1ccc(/C=C2\CC(C(C)C)C/C(=C\c3ccc(OC)c(OC)c3Cl)C2=O)c(Cl)c1OC (centres undefined) | 58 | Dose-dependent effect | Non-toxic | < 4.00 | 6.04
COc1ccc(/C=C2\CN(Cc3ccccc3)C/C(=C\c3ccc(OC)c(OC)c3Cl)C2=O)c(Cl)c1OC | 58 |  | Non-toxic | < 4.00 | < 4.00
COc1cccc(/C=C2\COC/C(=C\c3cccc(OC)c3Cl)C2=O)c1Cl | 58 |  | Non-toxic | < 4.00 | 5.02
COc1cccc(/C=C2\CCC/C(=C\c3cccc(OC)c3Cl)C2=O)c1Cl | 58 |  | Non-toxic | < 4.00 | 4.65
COc1ccc(/C=C2\CN(C)C/C(=C\c3ccc(OC)c(OC)c3Cl)C2=O)c(Cl)c1OC | ≤ 92 | Dose-dependent effect | Non-toxic | 5.54 | 6.20
COc1cc(/C=C2\COC/C(=C\c3cc(OC)c(OC)c(OC)c3Br)C2=O)c(Br)c(OC)c1OC | ≤ 92 |  | Non-toxic | < 4.00 | 5.82
COc1cc(/C=C2\CN(Cc3ccccc3)C/C(=C\c3cc(OC)c(OC)c(OC)c3Br)C2=O)c(Br)c(OC)c1OC | 58 |  | Non-toxic | < 4.00 | < 4.00
COc1cc(/C=C2\CCC/C(=C\c3cc(OC)c(OC)c(OC)c3Br)C2=O)c(Br)c(OC)c1OC | 58 | Dose-dependent effect | Non-toxic | < 4.00 | 4.90
COc1cccc(/C=C2\CN(C)C/C(=C\c3cccc(OC)c3Cl)C2=O)c1Cl | ≤ 92 |  | Non-toxic | < 4.00 | 5.92
COc1ccc(/C=C2\CC(C)C/C(=C\c3ccc(OC)c(OC)c3Cl)C2=O)c(Cl)c1OC (centres undefined) | 58 |  | Non-toxic | 4.95 | 5.68
COc1cccc(/C=C2\CNC/C(=C\c3cccc(OC)c3Cl)C2=O)c1Cl | 58 |  | Non-toxic | < 4.00 | 5.28
COc1cccc(/C=C2\CC(C)C/C(=C\c3cccc(OC)c3Cl)C2=O)c1Cl (centres undefined) | 58 |  | Non-toxic | 4.30 | 5.25
COc1cc(/C=C2\CC(C)C/C(=C\c3cc(OC)c(OC)c(OC)c3Br)C2=O)c(Br)c(OC)c1OC (centres undefined) | ≤ 92 |  | Non-toxic | 4.71 | 5.82
COc1ccc(/C=C2\CCC/C(=C\c3ccc(OC)c(OC)c3Cl)C2=O)c(Cl)c1OC | 58 |  | Non-toxic | < 4.00 | 4.76
COc1cccc(/C=C2\CC(C(C)C)C/C(=C\c3cccc(OC)c3Cl)C2=O)c1Cl (centres undefined) | 58 |  | Non-toxic | < 4.00 | 5.89
COc1cc(/C=C2\CNC/C(=C\c3cc(OC)c(OC)c(OC)c3Br)C2=O)c(Br)c(OC)c1OC | ≤ 92 |  | Non-toxic | 4.16 | 5.72
